# “And” between values parts separate entries of the source, which are not always exact repeats. Equal entries are not always repeated. Where two headings read alike, the source gives them in different places. {LC640} = LightCycler Red 640 dye label (LCRED640); {FL} = fluorescein label (FL); {P} = phosphate
# Key:
# [1] = tested on: Salmonella strains; test: Minimum inhibitory concentration (MIC) of quinolone antibacterials by E-test strips; type: cell-based, Salmonella spp.; conditions: for MIC: Salmonella
# Description: The minimum inhibitory concentration was deterrnined by the E-test strips of quinolone antibacterials (AB BIODISC North America Inc., Solna, Sweden). The bacterial strain to be tested was streak plated on xylose lysin desoxycholate agar (XLD) (Merck kGaA, Darmstadt, Germany). After the purity of said strain was verified, the strain was grown on tryptic soy agar (TSA) medium (Merck kGaA, Darrnstadt, Germany) at 35-37° C. for 16-18 hours and then suspended in sterile water. The bacterial concentration was adjusted to 80% of turbidity (corresponding to 0.5 MacFarland turbidity standard, and the bacterial content is approximately […]) using Vitek Special DR 100 Colorimeter (HACH Company, Colorado, USA). Then, 0.1 ml of the bacterial aliquot was placed on the prepared Mueller-Hinton (M-H) agar medium (having the diameter of 9 cm and the thickness of 4.0±0.5 mm) (Merck kGaA, Darmstadt, Germany) and the aliquot was spread evenly on the medium by a sterilized glass rod. The medium plate stood still for 10 to 15 minutes to ensure that the bacterial aliquot completely penetrated into the medium. Thereafter, a sterilized tweezer was used to clip the E region of the E-test antibacterial test strip which was then placed on the inoculated M-H medium plate. Two E-test trips were placed parallel to each other and symmetrically on each medium plate. Said medium plates were then incubated at 35-37° C. for 16-18 hours. The results were determined based on the standards from National Committee for Clinical Laboratory Standard (NCCLS, 2001), USA. Each antibacterial agent was tested in a duplicate experiment, and E. coli ATCC 25922/CCRC 11509 was used as the control of the tested strains in each experiment.
# [2] = tested on: single-stranded PCR products of Salmonella gyrA gene; test: Real-time PCR with melting curve analysis of gyrA4 hybridization probes; type: binding, Salmonella spp.
# Description: (§1) The bacterial strain to be tested was streak plated on XLD medium. After the purity of said strain was verified, the strain was grown in TSB broth at 35±1° C. for 18±2 hours. Following refrigerated centrifugation, Wizard® Genomic DNA Purification Kit was used to extract the genomic DNA. One microliter of the DNA extraction solution was added to the reaction mix (containing 0.5 μM primer set, 0.2 μM probe set, 4 mM MgCl2, and 1×LightCycler DNA Master hybridization mix) to a final volume of 20 μl, which was then placed in LightCycler (Roche Applied Science, Mannheim, Germany) for amplification and melting reaction of the hybrid of the PCR product with the hybridization probes.
# [3] = tested on: single-stranded PCR products of parC gene; test: Real-time PCR with melting curve analysis of parC238 hybridization probes; type: binding, Salmonella spp.
# Description: as §1
# [4] = Table 4, gyrA single point mutation strains (52)
compound,measurement,setting,value
O=C(O)c1cn(C2CC2)c2cc(N3CCNCC3)c(F)cc2c1=O [ciprofloxacin],Susceptibility Cp,[1]; Mutant strains (75),S/R
same,Susceptibility,"[1]; Table 4, Wild type strains",S
same,Susceptibility,[1]; [4],S
same,Susceptibility Cp,[1]; Wild type strains (45),"S (S, susceptibility, MICs 0.006-0.38 μg/ml)"
same,Ciprofloxacin susceptibility,[1]; parC mutant (A238C) strains (23),Resistant
same,Ciprofloxacin susceptibility,[1]; parC wild type strains (97),Sensitive
same,Susceptibility,[1]; {},S
CCn1cc(C(=O)O)c(=O)c2ccc(C)nc21 [nalidixic acid],share of the 120 Salmonella strains tested that were resistant,[1]; 120 strains from animal foods and clinical samples,62.5%
same,MIC,"[1]; read-out: MICs, resistant strains (gyrA mutants)",≥ 256 µg/mL
same,MIC,"[1]; susceptible strains (wild type), read-out: MICs",2.5 to 7 µg/mL
same,Susceptibility,"[1]; Table 4, Wild type strains",S
same,Susceptibility,[1]; [4],R
same,Susceptibility NA,[1]; Wild type strains (45),"S (S, susceptibility, MICs 2.5˜7 μg/ml)"
same,Susceptibility,[1]; {},R
same,Susceptibility NA,[1]; {},"R (R, resistance, MICs ≧ 256 μg/ml)"
"gyrA4: hybridization probe set of gyrA4-FL (SEQ ID NO: 5) and gyrA4-LC640 (SEQ ID NO: 6) (DNA 1 CGATTCCGCAGTGTATGACACC; DNA 2 CGTTCGTATGGCGCAGCCATTCTCG; DNA 1: DNA, 3' {FL}, backbone not given here; DNA 2: DNA, 5' {LC640}, 3' {P}, backbone not given here; listed as Salmonella sp.)",Tm ± SD (CV %),[2]; C248A mutant strains,58.6±0.3 °C and 58.6 ± 0.3 (0.51) ° C.
same,Tm ± SD (CV %),[2]; C248T mutant strains,59.1±0.2 °C and 59.1 ± 0.2 (0.40) ° C.
same,Tm ± SD (CV %),[2]; G259A mutant strains,59.8±0.4 °C and 59.8 ± 0.4 (0.60) ° C.
same,Tm ± SD (CV %),[2]; G259T mutant strains,59.6±0.4 °C and 59.6 ± 0.4 (0.68) ° C.
same,Tm ± SD (CV %),[2]; Wild type strains,63.6±1.0 °C and 63.6 ± 1.0 (1.62) ° C.
same,Tm ± SD (CV %),[2]; double point mutation C248T/A260G strains,54.6±0.2 °C and 54.6 ± 0.2 (0.27) ° C.
same,Tm ± SD (CV %),"[2]; single point mutation strains (C248A, C248T, G259A, G259T)",59.2±0.5 °C and 59.2 ± 0.5 (0.89) ° C.
"parC238: hybridization probe set of parC238-FL (SEQ ID NO: 7) and parC238-LC640 (SEQ ID NO: 8) (DNA 1 CGACCGCGCCTGCT; DNA 2 GAAGCCATGGTGCTGATGGCG; DNA 1: DNA, 3' {FL}, backbone not given here; DNA 2: DNA, 5' {LC640}, 3' {P}, backbone not given here; listed as Salmonella sp.)",Tm ± SD (CV %),[3]; parC mutant (A238C) strains,61.4±0.3 °C
same,Tm ± SD (CV %),[3]; parC wild type strains,47.4±0.5 °C

# From US20070031889A1, “Method for rapidly detecting quinolone-resistant Salmonella ssp. and the probes and primers utilized therein” (Bureau of Food and Drug Analysis, Department of Health, …, priority 2004, published 2007)
